From patent US12553889B2, “Small molecules targeting the intrinsically disordered structural ensemble of α-synuclein protect against diverse α-synuclein mediated dysfunctions” (The Regents of the University of California, priority 2019, dated 2026)
“Also recorded” adds a separate entry of the source.

What was measured:
[1] = tested on: H4 SL1 & SL2 neuroglioma cell line; test: Cell model of αSyn aggregate formation (phospho-S129 αSyn staining, ARRAYSCAN); type: cell-based; conditions: 100 μM and 150 μM, 45 hours
Procedure: Next, 583854 was tested for impact on αSyn aggregation in a cell model of αSyn aggregate formation. Split Gaussian luciferase tagged αSyn overexpression was induced in the H4 SL1 & SL2 neuroglioma cell line by tetracycline addition (Moussaud, S., et al. (2015)). αSyn aggregates were visualized by staining fixed (4% PFA) cells with the S129 phosphorylated αSyn specific antibody 11A5 at 1 μg/ml (Anderson, J. P. et al. (2006)) using a green fluorescently labelled secondary antibody. Nuclei were stained with a blue Hoescht nuclear dye. Uninduced cells contained no phospho-αSyn staining and induced cells contain abundant phospho-αSyn aggregates. The cells were imaged for nuclei (blue, diffuse circular staining as in the Uninduced sample)) and phospho-αSyn (green punctate staining) on an ARRAYSCAN automated imaging platform (FIG. 23A), αSyn aggregates were quantitated using the ARRAYSCAN spot-detector algorithm. Cells were induced for αSyn by tetracycline addition and 583854 was added 3 to 4 hours later. At 48 hours after tetracycline addition the cells are washed in PBS and […] with 4% PFA.

[2] = target: αSyn (Homo sapiens, UniProt P37840); test: Cellular oligomerization assay (split Gaussia luciferase complementation in H4 cells); type: cell-based; conditions: maximal concentrations not showing toxicity, 0.3% DMSO
Procedure: H4 neuroglioma cells (HTB-148; ATCC) were passaged in DME containing 10% fetal calf serum (FCS). They were plated into 10 cm dishes at 7.5×10^5 cells per dish and the following day transfected with DNA and Fugene (Promega, Madison, WI) at a ratio of 3:1 with 7 μg each of Syn-Luc1 (S1) and Syn-Luc2 (S2) plasmids, which are also referred to as syn-hGluc(1) and syn-hGLuc(2) respectively (see Outeiro, T. F. et al. Plos One 3, e1867, incorporated herein by reference in entirety) and 3 μg of red firefly expressing plasmid (pCMV-Red firefly Luc, ThermoFisher, Waltham, MA) per dish according to the manufacturer's directions. S1 and S2 plasmids express αSyn containing split Gaussia luciferase with either the N-terminal fragment (S1) or C-terminal fragment (S2) attached to the C-terminus of αSyn. After 24 hours, the DNA containing media was removed and cells were fed fresh DME media containing 10% FCS. […] Gaussia luciferase activity was measured in the dark 0.1 sec after injection of 100 μl/well of […] coelenterazine, substrate (NanoLight, Pinetop, AZ) using a 2 sec integration on a Veritas Microplate Luminometer (Promega, Madison, WI). The cells were subsequently assayed for red Firefly activity using the ONE-Glo™ Luciferase Assay System kit (Promega, Madison, WI) on a Spectramax M5 (Molecular Devices, San Jose, CA) plate reader as a normalization measure. […]

[3] = tested on: primary rat embryonic midbrain neurons; test: Toxicity to primary midbrain dopaminergic neurons; type: cell-based; conditions: compound alone, 60 μM
Procedure: (§1) Primary midbrain cultures were prepared and dopaminergic neuronal viability in the presence and absence of αSyn was assessed as previously described and repeated herein. Primary midbrain cultures were prepared from embryonic day 17 embryos of Sprague-Dawley rats using methods reviewed and approved by the Purdue Animal Care and Use Committee as described previously. After dissection, the cells were plated into a poly-L-lysine-treated 48-well plate at a density of 163,500 cells per well. Four days later, the cells were treated with cytosine arabinofuranoside (AraC) (20 μM) for 48 hours to inhibit the growth of glial cells. The cultures were used for measurements of dopaminergic neuron viability at 7 days in vitro. […] In order to determine the viability of dopaminergic neurons, MAP2- and TH-positive neurons were counted in 10 to 15 randomly chosen observation fields in a blinded manner using a Nikon TE2000-U inverted fluorescence microscope (Nikon Instruments, Melville NY) with a 20× objective. In the control conditions, and in conditions where the compound was neuroprotective, typically 500 to 1,300 MAP2-positive neurons were counted, a range that corresponds to 20 to 50 TH-positive neurons. The data were expressed as the ratio of the TH-positive neurons to the MAP2-positive neurons. […]

[4] = tested on: A53T αSyn; test: Dopaminergic neuron viability assay, A53T αSyn adenovirus transduced primary midbrain cultures; type: cell-based, rat
Procedure: as §1

Compound	impact on αSyn aggregates (phospho-αSyn) [1]	impact on cellular αSyn oligomerization [2]	toxic effect on primary dopaminergic neurons [3]	effect on A53T αSyn neurotoxicity (TH-positive/MAP2-positive neurons) ([4]; 10 μM)	effect on A53T αSyn neurotoxicity (TH-positive/MAP2-positive neurons) ([4]; 60 μM)
CNC(=O)c1cc(O)ccc1O [Compound 583854, 2,5-dihydroxy-N-methylbenzamide]	reduced αSyn aggregates	–	–	–	–
CNC(=O)c1cc(O)ccc1N [Compound 576755, 2-amino-5-hydroxy-N-methylbenzamide]	–	reproducibly reduced cellular oligomers; also recorded: reduces αSyn oligomerization	no detectable toxic effect; also recorded: not toxic	a trend towards a similar inhibitory effect	suppressed A53T αSyn neurotoxicity; also recorded: alleviates loss of dopaminergic neurons
